{"source": "patent US20050233991A1", "about": "“Methods and compositions for the identification, assessment, and therapy of small cell lung cancer” (priority 2002, published 2005)", "key": {"NCI-H446 cells": {"test_system": "NCI-H446 cells", "experiment": "Phase contrast microscopy of SDF-1α induced adhesion/morphology with LY294002", "format": "cell-based, human", "details": "SDF-1α 100 ng/ml, 24 hour time point", "protocol": "(§1) Phase-contrast photomicrographs were taken at various time points (0, 1, 2, 4, 8, and 24 hours). For LY294002 studies, starved NCI-H446 cells (1×10^6) were resuspended in serum free media and placed onto a 35 mm tissue culture dish (Becton Dickinson Labware).\nPhase-contrast microscopy pictures were taken at the 24 hour time point. Most of the untreated cells kept their rounded shape and formed clusters, and nearly half of them attached weakly to the bottom of the dish."}, "NCI-H69 cells [1]": {"test_system": "NCI-H69 cells", "experiment": "Phase contrast microscopy of morphological changes with SDF-1α, SCF and STI571", "format": "cell-based, human", "details": "for morphological change of NCI-H69 cells in response to ligand: 100 ng/ml, pictures after 8 hours", "protocol": "as §1\nIt has not been shown previously that there is a functional interaction between CXCR4 and c-Kit in SCLC. […] Phase-contrast microscopy pictures were then taken after 8 hours. Morphological changes began to be apparent at 4 hours, and the changes plateaued between 8 and 24 hours. […] Inhibition of the active c-Kit receptor by STI571 may lead to the inhibition of other active receptors such as CXCR4."}, "Akt and p70 S6 kinase": {"test_system": "Akt and p70 S6 kinase", "experiment": "Immunoblotting of Akt and p70 S6 kinase phosphorylation", "format": "cell-based, human", "details": "for time to phosphorylation of Akt (Ser 473) and p70 S6 kinase (Thr 389): 50 ng/ml, serum starved NCI-H69 cells", "protocol": "(§2) Cells were lysed in lysis buffer (20 mM Tris pH 8.0, 150 mM NaCl, 10% glycerol, 1% NP-40, 0.42% NaF) containing protease inhibitors (1 mM PMSF, 1 mM Na3VO4, 5 μg/ml aprotinin, 5 μg/ml leupeptin). Cell lysates were separated by 7.5% SDS-PAGE under reducing conditions and transferred to nitrocellulose membranes (Schleicher & Schuell, Dassel, Germany). Proteins were detected by immunoblotting using an enhanced chemiluminescence technique (NEN Life Science Products, Mass.). Rabbit polyclonal antibodies against c-Kit (C-19; Santa Cruz Biotechnology, Inc., Santa Cruz, Calif.), Akt, Akt (pSer 473), Akt (pThr 308), p70 S6 kinase, and p70 S6 kinase (pThr 389) (Cell Signaling Technology, Inc., Beverly, Mass.) and monoclonal antibodies against […]-actin (AC-15; Sigma, St. Louis, Mo.) and phosphotyrosine (4G10, UBI, Lake Placid, N.Y.) were used.\n(§3) The activity of the PI3-K downstream targets Akt and p70 S6 kinase is regulated through critical serine/threonine (Ser/The) residues (Franke, T. F. et al. (1997) Cell 88:435-7; Pullen, N. and Thomas, G. (1997) FEBS Lett 410:78-82). […] Cell lysates were applied to a 7.5% SDS-PAGE gel and transferred to nitrocellulose membrane. The membrane was probed with monoclonal antibodies against phosphotyrosine (4G10) and β-actin and polyclonal antibodies against Akt (pSer 473) and p70 S6 kinase (S6K) (pThr 389). […] On the other hand, maximal tyrosine phosphorylation of proteins at 60-90 kDa and 110-145 kDa occurred within 2.5-7.5 minutes in response to SCF.\nLysates were processed as described above in Example 6, and the membrane was probed with the phospho-specific or regular antibodies against Akt and p70 S6 kinase, as well as with an anti-c-Kit antibody. […] The expression levels of Akt, p70 S6 kinase, and c-Kit were not affected by any of these treatments."}, "human c-Kit (human)": {"target": "human c-Kit (human)", "experiment": "cell-based or functional assay"}, "NCI-H69 cells [2]": {"test_system": "NCI-H69 cells", "experiment": "Cell viability assay (trypan blue dye exclusion)", "format": "cell-based, human", "details": "100 ng/ml; for increase in viable cell number: 10% FCS, 72 hours; for effect on cell survival: without serum", "protocol": "Ten small cell lung cancer (SCLC) cell lines (NCI-H69, NCI-H82, NCI-H128, NCI-H146, NCI-H209, NCI-H249, NCI-H345, NCI-H446, NCI-H510, and NCI-H526) were purchased from the American Type Culture Collection (Rockville, Md.) and maintained in RPMI 1640 medium (Cellgro) supplemented with 10% (v/v) fetal calf serum (FCS). MO7e cells were maintained as described in Sattler, M. et al. (1997) J. Biol. Chem. 272:10248-53. All cell lines were incubated at 37° C. in a 5% CO2 humidified atmosphere and harvested during log phase growth. Cells were deprived of growth factors by incubation in RPMI 1640 medium containing 0.5% (w/v) bovine serum albumin (BSA) (Sigma, St. Louis, Mo.) for 18 hours. In some experiments, cells were treated with 5 μM STI571 (Gleevec™, Novartis Pharmaceuticals, Basel, Switzerland) or 25 μM LY294002 (Sigma).\nViable cells were counted by trypan blue dye exclusion test every 24 hours up to 72 hours. Data was plotted as the mean±SD from three independent experiments. Student's t test was used for the statistical analysis of viable cell number under individual conditions. Differences were considered statistically significant at p<0.05."}, "[3]": {"test_system": "tyrosine phosphorylation of cellular proteins in NCI-H69 cells", "experiment": "Immunoblotting of tyrosine phosphorylation of cellular proteins (4G10)", "format": "cell-based, human", "protocol": "as §2, §3"}}, "data": [{"molecule": "O=c1cc(N2CCOCC2)oc2c(-c3ccccc3)cccc12", "note": "[LY294002, reference compound]", "values": [{"measurement": "cells floating with rounded shapes in spite of SDF-1α treatment", "setting": "NCI-H446 cells; LY294002 25 μM", "value": "more than 90%"}]}, {"molecule": "Cc1ccc(NC(=O)c2ccc(CN3CCN(C)CC3)cc2)cc1Nc1nccc(-c2cccnc2)n1", "note": "[STI571]", "values": [{"measurement": "inhibition of the morphological changes", "setting": "NCI-H69 cells [1]; STI571 5 μM", "value": "only in the presence of SCF"}, {"measurement": "neurite like projections induced by SDF-1α alone in the presence of STI571", "setting": "NCI-H69 cells [1]; STI571 5 μM, SDF-1α 100 ng/ml", "value": "still formed"}, {"measurement": "neurite like structures in STI571 treated cells stimulated with both SDF-1α and SCF", "setting": "NCI-H69 cells [1]; STI571 5 μM, SDF-1α 100 ng/ml and SCF 100 ng/ml", "value": "could not form any neurite like structures"}, {"measurement": "effect of pre-treatment on SCF induced phosphorylation of Akt and p70 S6 kinase", "setting": "Akt and p70 S6 kinase; STI571 5 μM or LY294002 25 μM overnight, then 50 ng/ml SCF 15 minutes, NCI-H69 cells", "value": "inhibited"}]}, {"molecule": "Recombinant human SCF (stem cell factor) (from UniProt P21583 26-189) (ligand)", "values": [{"measurement": "cell proliferation of NCI-H69 cells (viable cell count, trypan blue), 10% FCS, 100 ng/ml SCF, 48 hours, increase compared with untreated control", "setting": "human c-Kit (human)", "value": 21.5, "unit": "%"}, {"measurement": "concentration for optimal phosphorylation of cellular proteins in NCI-H69 cells (immunoblot, dose-response)", "setting": "human c-Kit (human)", "value": 10, "unit": "ng/mL"}, {"measurement": "time to phosphorylation of Akt (Ser 473) and p70 S6 kinase (Thr 389) in NCI-H69 cells, 50 ng/ml SCF", "setting": "human c-Kit (human)", "value": "< 2.5", "unit": "min"}]}, {"molecule": "SCF: Recombinant human stem cell factor, natural ligand of c-Kit", "values": [{"measurement": "increase in viable cell number", "setting": "NCI-H69 cells [2]", "value": 16.5, "unit": "%"}, {"measurement": "cell proliferation induced, as compared with untreated control", "setting": "NCI-H69 cells [2]; media containing 10% FCS, 48 hours", "value": 21.5, "unit": "%"}, {"measurement": "effect on cell survival", "setting": "NCI-H69 cells [2]", "value": "neither SCF nor SDF-1α showed any effect"}, {"measurement": "morphological change of NCI-H69 cells in response to ligand", "setting": "NCI-H69 cells [1]", "value": "Neurite like actin formations were observed"}, {"measurement": "concentration giving optimal phosphorylation of cellular proteins (dose-response studies)", "setting": "[3]; NCI-H69 cells", "value": "≥ 10", "unit": "ng/mL"}, {"measurement": "time of maximal tyrosine phosphorylation of proteins at 60-90 kDa and 110-145 kDa", "setting": "[3]; SCF 50 ng/ml, serum starved NCI-H69 cells", "value": "2.5-7.5 minutes"}, {"measurement": "time to phosphorylation of Akt (Ser 473) and p70 S6 kinase (Thr 389)", "setting": "Akt and p70 S6 kinase", "value": "≤ 2.5", "unit": "min"}]}, {"molecule": "SDF-1α: Recombinant human SDF-1α, natural ligand for CXCR4, member of the CXC chemokine family", "values": [{"measurement": "increase in viable cell number", "setting": "NCI-H69 cells [2]", "value": 15.5, "unit": "%"}, {"measurement": "effect on cell survival", "setting": "NCI-H69 cells [2]", "value": "neither SCF nor SDF-1α showed any effect"}, {"measurement": "adhesion and morphology of cells with SDF-1α", "setting": "NCI-H446 cells", "value": "almost all cells tightly adhered to the bottom of the dish and neurite like projections were induced in many cells"}, {"measurement": "morphological change of NCI-H69 cells in response to ligand", "setting": "NCI-H69 cells [1]", "value": "more apparent as projections"}, {"measurement": "time to tyrosine phosphorylated bands between 70-120 kDa", "setting": "[3]; SDF-1α 50 ng/ml, serum starved NCI-H69 cells", "value": "≤ 15", "unit": "min"}, {"measurement": "time to phosphorylation of Akt (Ser 473) and p70 S6 kinase (Thr 389)", "setting": "Akt and p70 S6 kinase", "value": "≤ 5", "unit": "min"}]}]}
